Measurements taken from patent US5620864A, “Acceptor for fucosyl transferase” (Health Research, Inc., priority 1992, dated 1997).
Where “and” joins values, the source holds several entries; their conditions need not be identical. Equal values may be shown once.

Experiments:
[1] = target: T1, serum α1,3-L-fucosyltransferase (Homo sapiens, UniProt P51993); assay: Assay of α1,3-fucosyltransferase with various synthetic acceptors, ovarian cancer sera as enzyme source; format: biochemical; details: for Relative Percent: 2'-methyl LacNAc = 100; for [14C] Fucose Incorporated (CPM): acceptor 0.3 mM, 37° C. 18 h
T1 construct: Sera were collected from healthy females and ovarian cancer patients; from tissue; host or cells: blood serum of ovarian cancer patients and healthy females
T1 sequence (P51993 35-359 limits assumed): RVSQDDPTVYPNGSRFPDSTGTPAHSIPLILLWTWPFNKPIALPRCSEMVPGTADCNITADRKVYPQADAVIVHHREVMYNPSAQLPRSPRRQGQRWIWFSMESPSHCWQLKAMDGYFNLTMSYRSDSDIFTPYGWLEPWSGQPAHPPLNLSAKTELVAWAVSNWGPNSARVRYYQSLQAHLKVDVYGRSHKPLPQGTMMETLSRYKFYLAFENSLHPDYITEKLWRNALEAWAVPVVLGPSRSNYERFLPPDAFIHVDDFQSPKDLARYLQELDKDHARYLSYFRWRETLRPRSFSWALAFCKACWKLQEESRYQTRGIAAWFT
Description: Sera were collected from healthy females and ovarian cancer patients admitted to Roswell Park Cancer Institute in Buffalo, N.Y., USA. Ovarian tumor tissues were obtained during surgical procedures from patients with ovarian cancer. Both sera and tissues were stored frozen at -70° C. until use.
(§1) An incubation mixture contained 50 mM HEPES-NaOH, pH 7.5, 5 mM MnC12, 7 mM ATP, 3 mM NaN3, the acceptor 0.3 mM (for serum enzyme) or 3.0 mM (for tumor enzyme), 0.125 μCi of GDP-[U-^14 C] Fuc (Sp. Act. 216 mCi/mmol) and enzyme in a total volume of 0.10 ml; the control incubation mixture had everything except the acceptor. At the end of incubation at 37° C. for 18 h, the mixture was diluted with 1 ml water and passed through Dowex-1-C1 column (1 ml in a Pasteur pipet). The column was washed twice with 1 ml water; the breakthrough and wash, which contained the [^14 C] fucosylated neutral acceptor, were collected together in a scintillation vial and counted for radioactivity using the scintillation coctail 3a70 (Research Products International, Mount Prospects, Ill.) and Beckman LS9000. The Dowex column was then eluted successively with 3 ml each of 0.1M and 0.2M NaCl; these eluates which contained the [^14 C] fucosylated sulfated acceptors, were counted for radioactivity as before. Corrections were made by subtracting the radioactivity in the water and NaCl eluates of the control incubation mixture from the corresponding test fractions. The duplicate runs of samples gave almost identical values, the difference being <5%.
The activity of serum α1,3-fucosyltransferase was measured with the specific substrate 2'-methyl LacNAc and compared with the ability of several other synthetic substrates to act as an acceptor of fucose.
When the structure of the acceptor 2'-methyl LacNAc was modified by replacing the methyl group with sulfate group in C-2', 3', 6' or 6 position and tested their ability to act as the acceptor of fucose, the following novel findings emerged. […] The β-benzyl glycoside of 3' sulfo LacNAc was quite active (168.4%) but less than the parent compound.

[2] = test system: α1,3-L-fucosyltransferase of the soluble fraction of human ovarian tumor; assay: Assay of α1,3-fucosyltransferase with synthetic acceptors, partially purified enzyme of ovarian tumor soluble fraction; format: biochemical; details: for [14C] Fucose Incorporated (CPM): acceptor 3.0 mM, 37° C. 18 h
Description: as §1
As shown in the scheme set forth in FIG. 2, the α-L-fucosidase-free extract of the tissue (40 g), after concentration by 80% (NH4)2 SO4 precipitation was fractionated on bovine IgG glycopep-Sepharose in batches of 25 ml. After washing the column with the equilibration buffer, the bound enzyme was eluted with 1 M NaCl in the same buffer. The protein positive fractions were pooled and processed as shown in the scheme 2.0 ml of the above preparation was loaded on a Sephacryl S-200 column (Superfine:2.6 cm×88.0 cm) equilibrated at 4° C. with 50 mM Tris-HC1, pH 7.0 containing 0.15M NaCl and 0.1% Triton X-100 and eluted with the same buffer. Fractions of 3.0 ml were collected. The fucosyltransferase activity was located in the effluent fractions, by assaying first every 5th fraction and then obtaining the activity profile by assaying the alternate fractions in that range, using 2'-fucosyl LacNAc as the acceptor. […] Its elution position, which is slightly later than BSA, run separately on the same column, indicates its molecular weight as <67,000 daltons. […] The enzyme has been purified 66 fold over the soluble extract with a recovery of 6.2%. The enzyme at this stage lost its activity either kept frozen at -20° C. or left at 4° C. for more than a week. However, the enzyme at the end of the previous step was fairly stable for at least two months at 4° C. So this preparation of enzyme was used in acceptor ability comparison studies.
When α1,3-fucosyltransferase activity of the partially purified enzyme preparation from the soluble portion of ovarian tumor was measured and compared with the activity of other acceptors, the following results were obtained. 2'-methyl LacNAc, LacNAc and Galβ1, 3GlcNAc were respectively 100.0%, 60.6% and 565.5% active, indicating the presence of both α1,3 and α1,4 fucosyltransferase activities in this preparation.

[3] = test system: α1,3-L-fucosyltransferase of the particulate fraction of ovarian tumor; assay: Assay of α1,3-fucosyltransferase with synthetic acceptors, ovarian tumor particulate fraction; format: biochemical, human; details: for Relative Percent: 2'-methyl LacNAc = 100; for [14C] Fucose Incorporated (CPM): acceptor 3.0 mM, 37° C. 18 h
Description: FIG. 2 The scheme for the preparation of the particulate and soluble fractions of human ovarian tumor.
as §1
This finding is quite different from what we found with the soluble fraction, where α1,4-fucosyltransferase activity seems to be greater than α1,3-fucosyltransferase activity. […] The different nature of the above enzymes was made further clear, when sulfated derivatives of LacNAc was tested as acceptors.

Row | SMILES | Relative Percent [1] [%] | [14C] Fucose Incorporated (CPM) [1] [CPM] | Relative Percent ([2]; 2'-methyl LacNAc = 100) [%] | [14C] Fucose Incorporated (CPM) [2] [CPM] | Relative Percent [3] [%] | [14C] Fucose Incorporated (CPM) [3] [CPM] | Relative Percent ([2]; 2'-methyl LacNAc = 100, listed as 6' sulfo LacNAc) [%] | Relative Percent ([2]; 2'-methyl LacNAc = 100, listed as 6-'-sulfo LacNAc) [%] | Relative Percent ([2]; 2'-methyl LacNAc = 100, listed as 2' sulfo LacNAc) [%] | Relative Percent ([2]; 2'-methyl LacNAc = 100, listed as 2' sulfo-LacNAc) [%] | Relative Percent ([2]; 2'-methyl LacNAc = 100, listed as 6-sulfo LacNAc) | Relative Percent ([2]; 2'-methyl LacNAc = 100, listed as Galβ1, 3 GlcNAc) [%] | Relative Percent ([2]; 2'-methyl LacNAc = 100, listed as Galβ1, 3GlcNAc) [%] | Relative Percent ([2]; 2'-methyl LacNAc = 100, listed as β-benzyl glycoside of Galβ1, 3 Glc NAc) [%] | Relative Percent ([2]; 2'-methyl LacNAc = 100, listed as β-benzyl glycoside of Galβ1,3GlcNAc) [%]
1 | CC(=O)N[C@H]1C(O)O[C@H](CO)[C@@H](O[C@@H]2O[C@H](CO)[C@H](O)[C@H](O)[C@H]2O[C@@H]2O[C@@H](C)[C@@H](O)[C@@H](O)[C@@H]2O)[C@@H]1O (some centres unmarked) [2'-Fucosyl LacNAc, 2'-Fucosyl N-acetyllactosamine] | 253.1 | 4379 | 436.1 | 32235 | 144.7 | 69824 | – | – | – | – | – | – | – | – | –
2 | CC(=O)N[C@H]1C(O)O[C@H](CO)[C@@H](O[C@@H]2O[C@H](COS(=O)(=O)O)[C@H](O)[C@H](O)[C@H]2O)[C@@H]1O (some centres unmarked) [6'-Sulfo LacNAc] | 36.2 | 626 | 5.3 | 395 | 42.6 | 20543 | 5 | 5.3 | – | – | – | – | – | – | –
3 | CC(=O)N[C@H]1C(O)O[C@H](CO)[C@@H](O[C@@H]2O[C@H](CO)[C@H](O)[C@H](O)[C@H]2OS(=O)(=O)O)[C@@H]1O (some centres unmarked) [2'-Sulfo LacNAc] | 22.0 | 380 | 32.7 | 2414 | 9.8 | 4718 | – | – | 33 | 32.7 | – | – | – | – | –
4 | CC(=O)N[C@H]1C(O)O[C@H](CO)[C@@H](O[C@@H]2O[C@H](CO)[C@H](O)[C@H](O)[C@H]2O)[C@@H]1O[C@@H]1O[C@@H](C)[C@@H](O)[C@@H](O)[C@@H]1O (some centres unmarked) [3-Fucosyl LacNAc] | 4.7 | 82 | 1.9 | 144 | 3.7 | 1801 | – | – | – | – | – | – | – | – | –
5 | CO[C@H]1[C@H](O[C@H]2[C@H](O)[C@@H](NC(C)=O)[C@H](OCc3ccccc3)O[C@@H]2CO)O[C@H](CO)[C@H](O)[C@@H]1O [2'-methyl LacNAcβ-O--Bn] | 307.9 | 5326 | 113.2 | 8367 | 149.2 | 71989 | – | – | – | – | – | – | – | – | –
6 | CC(=O)N[C@H]1[C@H](OCc2ccccc2)O[C@H](CO)[C@@H](O[C@@H]2O[C@H](CO)[C@H](O)[C@H](O)[C@H]2O[C@@H]2O[C@@H](C)[C@@H](O)[C@@H](O)[C@@H]2O)[C@@H]1O [2'-Fucosyl LacNAcβ-O--Bn] | 425.0 | 7352 | 373.0 | 27571 | 174.0 | 83975 | – | – | – | – | – | – | – | – | –

More lines, now with the values ahead:

Row | Relative Percent [1] [%] | [14C] Fucose Incorporated (CPM) [1] [CPM] | Relative Percent ([2]; 2'-methyl LacNAc = 100) [%] | [14C] Fucose Incorporated (CPM) [2] [CPM] | Relative Percent [3] [%] | [14C] Fucose Incorporated (CPM) [3] [CPM] | Relative Percent ([2]; 2'-methyl LacNAc = 100, listed as 6' sulfo LacNAc) [%] | Relative Percent ([2]; 2'-methyl LacNAc = 100, listed as 6-'-sulfo LacNAc) [%] | Relative Percent ([2]; 2'-methyl LacNAc = 100, listed as 2' sulfo LacNAc) [%] | Relative Percent ([2]; 2'-methyl LacNAc = 100, listed as 2' sulfo-LacNAc) [%] | Relative Percent ([2]; 2'-methyl LacNAc = 100, listed as 6-sulfo LacNAc) | Relative Percent ([2]; 2'-methyl LacNAc = 100, listed as Galβ1, 3 GlcNAc) [%] | Relative Percent ([2]; 2'-methyl LacNAc = 100, listed as Galβ1, 3GlcNAc) [%] | Relative Percent ([2]; 2'-methyl LacNAc = 100, listed as β-benzyl glycoside of Galβ1, 3 Glc NAc) [%] | Relative Percent ([2]; 2'-methyl LacNAc = 100, listed as β-benzyl glycoside of Galβ1,3GlcNAc) [%] | SMILES
7 | 9.5 | 164 | 0 | 0 | – | – | – | – | – | – | – | – | – | – | – | CC(=O)N[C@H]1[C@@H](Oc2ccccc2[N+](=O)[O-])O[C@H](CO[C@@H]2O[C@H](CO)[C@@H](O)[C@H](O)[C@H]2NC(C)=O)[C@H](O)[C@@H]1O [G1cNAcβ1,6Ga1NAcα-O--ONp]
8 | 172.4 | 2983 | 272.6 | 20148 | 53.3 | 25740 | – | – | – | – | 272% and 272.6% | – | – | – | – | CC(=O)N[C@H]1C(O)O[C@H](COS(=O)(=O)O)[C@@H](O[C@@H]2O[C@H](CO)[C@H](O)[C@H](O)[C@H]2O)[C@@H]1O (stereo partly drawn) [6-Sulfo LacNAc, β-D-GALACTOPYRANOSYL-(1→4)-SODIUM 2-ACETAMIDO-2-DEOXY-D-GLUCOPYRANOSE 6-SULFATE]
9 | 358.8 | 6207 | 111.6 | 8249 | 132.9 | 64223 | – | – | – | – | – | – | – | – | – | CC(=O)N[C@H]1[C@H](OCc2ccccc2)O[C@H](CO)[C@@H](O[C@@H]2O[C@H](CO)[C@H](O)[C@H](O)[C@H]2O)[C@@H]1O [LacNAcβ-O--Bn]
10 | 42.7 | 739 | – | – | 42.6 | 20559 | – | – | – | – | – | – | – | – | – | CO[C@@H]1O[C@H](CO)[C@H](O)[C@H](O[C@@H]2O[C@H](CO)[C@@H](O)[C@H](O[C@@H]3O[C@H](CO)[C@H](O)[C@H](O)[C@H]3O)[C@H]2NC(C)=O)[C@H]1O [Ga1β1,3G1cNAcβ1,3Ga1β-O--Me]
11 | 13.1 | 227 | 565.5 | 41802 | 34.2 | 16511 | – | – | – | – | – | 566 | 565.5 | – | – | CC(=O)N[C@H]1C(O)O[C@H](CO)[C@@H](O)[C@@H]1O[C@@H]1O[C@H](CO)[C@H](O)[C@H](O)[C@H]1O (stereo partly drawn) [Ga1β1,3G1cNAc]
12 | 93.4 | 1615 | 60.6 | 4480 | 61.8 | 29842 | – | – | – | – | – | – | – | – | – | CC(=O)N[C@H]1C(O)O[C@H](CO)[C@@H](O[C@@H]2O[C@H](CO)[C@H](O)[C@H](O)[C@H]2O)[C@@H]1O (some centres unmarked) [LacNAc]
13 | 21.7 | 376 | 1004.5 | 74260 | 37.8 | 18221 | – | – | – | – | – | – | – | 1005 | 1004.5 | CC(=O)N[C@H]1[C@H](OCc2ccccc2)O[C@H](CO)[C@@H](O)[C@@H]1O[C@@H]1O[C@H](CO)[C@H](O)[C@H](O)[C@H]1O [Ga1β1,3G1cNAcβ-O--Bn]
